Data reported in PubChem BioAssay AID248 (DTP/NCI, 2004).
Where “and” joins values, the source holds several entries; their conditions need not be identical. Identical values can stand only once. Toxic doses and inconclusive results are not listed. No stated cut-off is given here; in the data, active means T/C of 150% or more; inactive means T/C below 125%.

Test system: L1210 leukemia ip in BDF1 mice, survival T/C
Assay: NCI In Vivo Anticancer Drug Screen. Data for tumor model L1210 Leukemia (intraperitoneal) in B6D2F1 (BDF1) mice
Conditions: endpoint: mean survival time, higher = longer survival
Method in brief: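 Tumor was transplanted into mice, which were then dosed with test compound or vehicle alone. Survival was recorded for each group, and the treated figure was expressed relative to the control figure.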

[1] = dose: 25.0 mg/kg/injection, schedule: Q04DX002 (ip), vehicle: Klucel (hydroxypropylcellulose) (HPC)
[2] = dose: 50.0 mg/kg/injection, schedule: Q01DX009 (ip), vehicle: Klucel (hydroxypropylcellulose) (HPC)
[3] = dose: 100.0 mg/kg/injection, schedule: Q01DX009 (ip), vehicle: Klucel (hydroxypropylcellulose) (HPC)
[4] = dose: 100.0 mg/kg/injection, schedule: Q04DX003 (ip), vehicle: saline
[5] = dose: 200.0 mg/kg/injection, schedule: Q04DX003 (ip), vehicle: saline
[6] = dose: 200.0 mg/kg/injection, schedule: Q01DX009 (ip), vehicle: Klucel (hydroxypropylcellulose) (HPC)
[7] = dose: 400.0 mg/kg/injection, schedule: Q01DX009 (ip), vehicle: Klucel (hydroxypropylcellulose) (HPC)
[8] = dose: 100.0 mg/kg/injection, schedule: Q04DX003 (ip), vehicle: Klucel (hydroxypropylcellulose) (HPC)
[9] = dose: 200.0 mg/kg/injection, schedule: Q04DX003 (ip), vehicle: Klucel (hydroxypropylcellulose) (HPC)
[10] = dose: 50.0 mg/kg/injection, schedule: Q01DX001 (ip), vehicle: carboxymethylcellulose (CMC)
[11] = dose: 100.0 mg/kg/injection, schedule: Q01DX001 (ip), vehicle: carboxymethylcellulose (CMC)
[12] = dose: 200.0 mg/kg/injection, schedule: Q01DX001 (ip), vehicle: carboxymethylcellulose (CMC)
[13] = dose: 400.0 mg/kg/injection, schedule: Q01DX001 (ip), vehicle: carboxymethylcellulose (CMC)

Measured: T/C

O=c1/c(=C\c2ccc(Cl)c(Cl)c2)sc2n1CCN=2
inactive: dose: 100.0 mg/kg/injection, schedule: Q01DX001 (ip), vehicle: saline 86 % of control | dose: 400.0 mg/kg/injection, schedule: Q01DX001 (ip), vehicle: saline 93 % of control

O=c1[nH]c2ccccc2[nH]1
inactive: dose: 12.5 mg/kg/injection, schedule: Q04DX002 (ip), vehicle: Klucel (hydroxypropylcellulose) (HPC) 90 % of control | [1] 87 % of control | [2] 95 % of control | dose: 50.0 mg/kg/injection, schedule: Q04DX002 (ip), vehicle: Klucel (hydroxypropylcellulose) (HPC) 90 % of control | dose: 75.0 mg/kg/injection, schedule: Q01DX009 (ip), vehicle: Klucel (hydroxypropylcellulose) (HPC) 94 % of control | dose: 115.0 mg/kg/injection, schedule: Q01DX009 (ip), vehicle: Klucel (hydroxypropylcellulose) (HPC) 97 % of control | dose: 170.0 mg/kg/injection, schedule: Q01DX009 (ip), vehicle: Klucel (hydroxypropylcellulose) (HPC) 89 % of control

O=c1oc(-c2ccccc2)n[n+]([O-])c1-c1ccccc1
inactive: [2] 98 % of control | [3] 98 % of control

O=c1cc(CN2CCN(CCO)CC2)[nH]c(=O)[nH]1
inactive: [4] 101 % of control | [5] 95 % of control | dose: 400.0 mg/kg/injection, schedule: Q04DX003 (ip), vehicle: saline 95 % of control

N#Cc1ccc(/C=C/C(=O)c2ccccc2)cc1
inactive: dose: 100.0 mg/kg/injection, schedule: Q01DX001 (ip), vehicle: Klucel (hydroxypropylcellulose) (HPC) 95 % of control | [3] 96 % of control | dose: 200.0 mg/kg/injection, schedule: Q01DX001 (ip), vehicle: Klucel (hydroxypropylcellulose) (HPC) 88 % of control | [6] 93 % of control | [7] 89 % of control

CCCCCCCCCCCCSC(=O)CCC(=O)O
inactive: dose: 50.0 mg/kg/injection, schedule: Q01DX009 (ip), vehicle: other 102 % of control | dose: 100.0 mg/kg/injection, schedule: Q01DX009 (ip), vehicle: other 108 % of control | [8] 97 % of control | dose: 200.0 mg/kg/injection, schedule: Q01DX009 (ip), vehicle: other 97 % of control | [9] 103 % of control

COc1ccccc1NC(=O)Nc1ccc(SC)cc1
inactive: [3] 98 % of control | [8] 91 % of control | [6] 103 % of control | [9] 103 % of control | [7] 97 % of control | dose: 400.0 mg/kg/injection, schedule: Q04DX003 (ip), vehicle: Klucel (hydroxypropylcellulose) (HPC) 96 % of control

O=NN1C(=O)N[C@@H]2[C@H]1CS[C@@H]2CCCCC(=O)O
inactive: [10] 101 % of control | [11] 96 % of control | [12] 101 % of control | dose: 300.0 mg/kg/injection, schedule: Q01DX001 (ip), vehicle: carboxymethylcellulose (CMC) 95 % of control | [13] 95 % of control | dose: 600.0 mg/kg/injection, schedule: Q01DX001 (ip), vehicle: carboxymethylcellulose (CMC) 87 % of control | dose: 800.0 mg/kg/injection, schedule: Q01DX001 (ip), vehicle: carboxymethylcellulose (CMC) 90 % of control

CC12CCC(=O)C=C1CCCC2=O (centres undefined)
inactive: [4] 95 % of control | [5] 101 % of control

COC1CCC(OC2CC(C3(C)CCC4(CC(O)C(C)C(C(C)/C=C(\C)C(=O)C(C)CC(C)C(=O)O)O4)O3)OC3(OC(C4OC(O)(CO)C(C)CC4C)CC3C)C2C)OC1C (centres undefined)
inactive: dose: 0.93 mg/kg/injection, schedule: Q01DX001 (ip), vehicle: saline 93 % of control | dose: 1.87 mg/kg/injection, schedule: Q01DX001 (ip), vehicle: saline 90 % of control | dose: 28.0 micrograms/kg/injection, schedule: Q01DX009 (ip), vehicle: saline 94 % of control | dose: 57.0 micrograms/kg/injection, schedule: Q01DX009 (ip), vehicle: saline 88 % of control | dose: 57.0 micrograms/kg/injection, schedule: Q04DX003 (ip), vehicle: saline 94 % of control | dose: 115.0 micrograms/kg/injection, schedule: Q01DX009 (ip), vehicle: saline 105 % of control | dose: 115.0 micrograms/kg/injection, schedule: Q04DX003 (ip), vehicle: saline 91 % of control | dose: 230.0 micrograms/kg/injection, schedule: Q04DX003 (ip), vehicle: saline 89 % of control

CCOC(=O)c1ccc(OC(=O)Nc2ccc(F)cc2)cc1
inactive: [10] 106 % of control | dose: 50.0 mg/kg/injection, schedule: Q01DX009 (ip), vehicle: carboxymethylcellulose (CMC) 96 % of control and 105 % of control | dose: 50.0 mg/kg/injection, schedule: Q04DX002 (ip), vehicle: carboxymethylcellulose (CMC) 95 % of control and 103 % of control | [11] 104 % of control | dose: 100.0 mg/kg/injection, schedule: Q01DX009 (ip), vehicle: carboxymethylcellulose (CMC) 95 % of control and 99 % of control | dose: 100.0 mg/kg/injection, schedule: Q04DX002 (ip), vehicle: carboxymethylcellulose (CMC) 95 % of control and 107 % of control | [12] 101 % of control | dose: 200.0 mg/kg/injection, schedule: Q01DX009 (ip), vehicle: carboxymethylcellulose (CMC) 94 % of control | dose: 200.0 mg/kg/injection, schedule: Q04DX002 (ip), vehicle: carboxymethylcellulose (CMC) 103 % of control and 88 % of control

CC12CC3CC(Br)(C1)CC(C#N)(C3)C2 (centres undefined)
inactive: dose: 6.0 mg/kg/injection, schedule: Q04DX002 (ip), vehicle: Klucel (hydroxypropylcellulose) (HPC) 109 % of control | dose: 12.0 mg/kg/injection, schedule: Q04DX002 (ip), vehicle: Klucel (hydroxypropylcellulose) (HPC) 98 % of control | [1] 94 % of control

Nc1ccnc(OCc2ccccc2)n1
inactive: dose: 100.0 mg/kg/injection, schedule: Q01DX001 (ip), vehicle: saline with Tween-80 100 % of control | dose: 200.0 mg/kg/injection, schedule: Q01DX001 (ip), vehicle: saline with Tween-80 100 % of control

Cc1ccc(NC(=O)c2ccc(C)c(N)c2)c(C)c1
inactive: dose: 100.0 mg/kg/injection, schedule: Q01DX009 (ip), vehicle: gum acacia 100 % of control | dose: 100.0 mg/kg/injection, schedule: Q04DX003 (ip), vehicle: gum acacia 98 % of control | dose: 200.0 mg/kg/injection, schedule: Q01DX009 (ip), vehicle: gum acacia 87 % of control | dose: 200.0 mg/kg/injection, schedule: Q04DX003 (ip), vehicle: gum acacia 102 % of control | dose: 400.0 mg/kg/injection, schedule: Q01DX009 (ip), vehicle: gum acacia 87 % of control | dose: 400.0 mg/kg/injection, schedule: Q04DX003 (ip), vehicle: gum acacia 98 % of control

CC(c1ccccc1)C(C(=O)O)C(=O)O (centres undefined)
inactive: [10] 100 % of control | [11] 96 % of control | [12] 96 % of control | [13] 97 % of control

O=S(=O)(Nc1ccccc1)c1ccccc1C=C(c1ccccc1)c1ccccc1
inactive: dose: 100.0 mg/kg/injection, schedule: Q01DX001 (ip), vehicle: steriod suspending solution 105 % of control | dose: 200.0 mg/kg/injection, schedule: Q01DX001 (ip), vehicle: steriod suspending solution 86 % of control | dose: 400.0 mg/kg/injection, schedule: Q01DX001 (ip), vehicle: steriod suspending solution 97 % of control
